In PubChem BioAssay (NCI):
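These data come from cells grown in 96-well plates and exposed to compound for 48 hours at five concentrations. GI50: concentration for 50% inhibition of growth. TGI is the concentration that stops growth completely.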

What was measured:
Test in all cases: growth of human tumour cells (NCI), 48 h
786-0 renal = system: 786-0 renal
A498 renal = system: A498 renal
A549 NSCLC = system: A549 NSCLC
ACHN renal = system: ACHN renal
BT-549 breast = system: BT-549 breast
CAKI-1 renal = system: CAKI-1 renal
CCRF-CEM leukemia = system: CCRF-CEM leukemia
COLO 205 colon = system: COLO 205 colon
DU-145 prostate = system: DU-145 prostate
EKVX NSCLC = system: EKVX NSCLC
HCC-2998 colon = system: HCC-2998 colon
HCT-116 colon = system: HCT-116 colon
HCT-15 colon = system: HCT-15 colon
HL-60(TB) leukemia = system: HL-60(TB) leukemia
HOP-62 NSCLC = system: HOP-62 NSCLC
HOP-92 NSCLC = system: HOP-92 NSCLC
HS 578T breast = system: HS 578T breast
HT29 colon = system: HT29 colon
IGROV1 ovarian = system: IGROV1 ovarian
K-562 leukemia = system: K-562 leukemia
KM12 colon = system: KM12 colon
M14 melanoma = system: M14 melanoma
MALME-3M melanoma = system: MALME-3M melanoma
MCF7 breast = system: MCF7 breast
MDA-MB-435 = system: MDA-MB-435
MOLT-4 leukemia = system: MOLT-4 leukemia
NCI-H226 lung = system: NCI-H226 lung
NCI-H23 lung = system: NCI-H23 lung
NCI-H460 lung = system: NCI-H460 lung
NCI-H522 lung = system: NCI-H522 lung
OVCAR-4 ovarian = system: OVCAR-4 ovarian
OVCAR-5 ovarian = system: OVCAR-5 ovarian
OVCAR-8 ovarian = system: OVCAR-8 ovarian
PC-3 prostate = system: PC-3 prostate
RPMI-8226 leukemia = system: RPMI-8226 leukemia
RXF 393 renal = system: RXF 393 renal
SF-268 CNS = system: SF-268 CNS
SF-295 CNS = system: SF-295 CNS
SF-539 CNS = system: SF-539 CNS
SK-MEL-2 melanoma = system: SK-MEL-2 melanoma
SK-MEL-28 melanoma = system: SK-MEL-28 melanoma
SK-MEL-5 melanoma = system: SK-MEL-5 melanoma
SK-OV-3 ovarian = system: SK-OV-3 ovarian
SN12C renal = system: SN12C renal
SNB-19 CNS = system: SNB-19 CNS
SNB-75 CNS = system: SNB-75 CNS
SR leukemia = system: SR leukemia
SW-620 colon = system: SW-620 colon
TK-10 renal = system: TK-10 renal
U251 CNS = system: U251 CNS
UACC-257 melanoma = system: UACC-257 melanoma
UACC-62 melanoma = system: UACC-62 melanoma

## O=C(Nc1ccc(F)c(F)c1)c1cc(-c2ccc(F)cc2F)ccc1O
786-0 renal
  GI50: 1120 nM
  TGI: 2900 nM
A498 renal
  GI50: 636 nM
  TGI: 2070 nM
A549 NSCLC
  GI50: 1570 nM
  TGI: > 50000 nM
ACHN renal
  GI50: 1460 nM
  TGI: 4550 nM
BT-549 breast
  GI50: 1060 nM
  TGI: 7180 nM
CAKI-1 renal
  GI50: 1100 nM
  TGI: 3520 nM
CCRF-CEM leukemia
  GI50: 1620 nM
  TGI: > 50000 nM
COLO 205 colon
  GI50: 10600 nM
  TGI: 30500 nM
DU-145 prostate
  GI50: 1850 nM
  TGI: > 50000 nM
EKVX NSCLC
  GI50: 1380 nM
  TGI: 15700 nM
HCC-2998 colon
  GI50: 1490 nM
  TGI: > 50000 nM
HCT-116 colon
  GI50: 1120 nM
  TGI: 5940 nM
HCT-15 colon
  GI50: 1430 nM
  TGI: 6230 nM
HL-60(TB) leukemia
  GI50: 1110 nM
  TGI: 2810 nM
HOP-62 NSCLC
  GI50: 1590 nM
  TGI: 6150 nM
HOP-92 NSCLC
  GI50: 684 nM
  TGI: 2640 nM
HS 578T breast
  GI50: 1610 nM
  TGI: > 50000 nM
HT29 colon
  GI50: 13800 nM
  TGI: > 50000 nM
IGROV1 ovarian
  GI50: 1810 nM
  TGI: > 50000 nM
K-562 leukemia
  GI50: 1370 nM
  TGI: > 50000 nM
KM12 colon
  GI50: 1670 nM
  TGI: 6650 nM
M14 melanoma
  GI50: 1630 nM
  TGI: 9820 nM
MALME-3M melanoma
  GI50: 1010 nM
  TGI: 3070 nM
MCF7 breast
  GI50: 1180 nM
  TGI: > 50000 nM
MDA-MB-435
  GI50: 1430 nM
  TGI: 6510 nM
MOLT-4 leukemia
  GI50: 1540 nM
  TGI: 5860 nM
NCI-H226 lung
  GI50: 1510 nM
  TGI: 10100 nM
NCI-H23 lung
  GI50: 1070 nM
  TGI: 3230 nM
NCI-H460 lung
  GI50: 1460 nM
  TGI: > 50000 nM
NCI-H522 lung
  GI50: 923 nM
  TGI: > 50000 nM
OVCAR-4 ovarian
  GI50: 1370 nM
  TGI: > 50000 nM
OVCAR-5 ovarian
  GI50: 1550 nM
  TGI: > 50000 nM
OVCAR-8 ovarian
  GI50: 1650 nM
  TGI: > 50000 nM
PC-3 prostate
  GI50: 1490 nM
  TGI: > 50000 nM
RPMI-8226 leukemia
  GI50: 768 nM
  TGI: 2720 nM
RXF 393 renal
  GI50: 1250 nM
  TGI: 3870 nM
SF-268 CNS
  GI50: 1580 nM
  TGI: > 50000 nM
SF-295 CNS
  GI50: 1200 nM
  TGI: 3580 nM
SF-539 CNS
  GI50: 1730 nM
  TGI: > 50000 nM
SK-MEL-2 melanoma
  GI50: 979 nM
  TGI: 2860 nM
SK-MEL-28 melanoma
  GI50: 1410 nM
  TGI: 19100 nM
SK-MEL-5 melanoma
  GI50: 694 nM
  TGI: 1670 nM
SK-OV-3 ovarian
  GI50: 1370 nM
  TGI: 4700 nM
SN12C renal
  GI50: 1090 nM
  TGI: 4630 nM
SNB-19 CNS
  GI50: 1650 nM
  TGI: > 50000 nM
SNB-75 CNS
  GI50: 906 nM
  TGI: 2720 nM
SR leukemia
  GI50: 1920 nM
  TGI: > 50000 nM
SW-620 colon
  GI50: 1790 nM
  TGI: > 50000 nM
TK-10 renal
  GI50: 1700 nM
  TGI: > 50000 nM
U251 CNS
  GI50: 1480 nM
  TGI: > 50000 nM
UACC-257 melanoma
  GI50: 781 nM
  TGI: 3600 nM
UACC-62 melanoma
  GI50: 628 nM
  TGI: 2410 nM
